Measurements published in US11939314B2, “Quinolin-2-one derivatives” (MERCK PATENT GMBH, priority 2016, dated 2024).

Assays:
c-Kit(V654A) = target: T1, c-Kit(V654A) (Homo sapiens, UniProt P10721, V654A); assay: c-Kit(V654A) assay; type: biochemical; conditions: recombinant human c-Kit aa 544-end, 200 μM ATP, 1.4E-06 means 1.4×10^−6, read-out: Inhibition (IC50) of c-KIT (V654A)
T1 construct: amino acids 544-end containing the V654A mutation; GST (N)
Method in brief: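 Radiometric filter-binding read-out: substrate 33P incorporation counted by scintillation after P30 filtermat washes in 75 mM phosphoric acid and methanol. Enzyme: N-GST recombinant human c-Kit aa 544-end carrying V654A.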

PDGFRalpha(V561D) = target: T2, PDGFRalpha(V561D) (Homo sapiens, UniProt P16234, V561D); assay: PDGFRalpha(V561D) assay; type: biochemical; conditions: recombinant human PDGFRalpha aa 550-end, 200 μM ATP, 1.4E-06 means 1.4×10^−6, read-out: Inhibition (IC50) of PDGFRα (V561D)
T2 construct: recombinant human PDGFRalpha, amino acids 550end containing the V561 D mutation; 6His (N)
T2 sequence (P16234 550-1089 V561D): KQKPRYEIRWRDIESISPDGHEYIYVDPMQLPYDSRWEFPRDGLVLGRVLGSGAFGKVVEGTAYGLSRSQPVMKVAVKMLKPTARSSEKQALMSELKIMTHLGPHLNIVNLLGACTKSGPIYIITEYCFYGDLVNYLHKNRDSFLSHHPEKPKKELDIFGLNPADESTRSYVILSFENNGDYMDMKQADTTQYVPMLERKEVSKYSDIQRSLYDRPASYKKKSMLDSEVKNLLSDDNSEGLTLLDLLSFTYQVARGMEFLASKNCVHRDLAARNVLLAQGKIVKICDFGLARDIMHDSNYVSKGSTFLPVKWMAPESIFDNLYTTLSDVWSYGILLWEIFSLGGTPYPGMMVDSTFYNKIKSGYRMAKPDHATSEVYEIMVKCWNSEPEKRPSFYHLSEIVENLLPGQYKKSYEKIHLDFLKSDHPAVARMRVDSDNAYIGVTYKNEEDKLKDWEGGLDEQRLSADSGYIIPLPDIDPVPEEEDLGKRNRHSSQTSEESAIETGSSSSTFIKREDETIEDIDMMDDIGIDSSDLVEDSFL
Protocol: PDGFRalpha(V561D) (N-terminal 6His-tagged, recombinant human PDGFRalpha, amino acids 550end containing the V561 D mutation) is incubated with 8 mM MOPS pH 7.0, 0.2 mM EDTA, 250 μM GGMEDIYEFMGGKKK, 10 mM MgAcetate and [gamma-33P-ATP] (specific activity approx. 500 cpm/pmol, concentration 200 μM). The reaction is initiated by the addition of the MgATP mix. After incubation for 40 minutes at room temperature, the reaction is stopped by the addition of 3% phosphoric acid solution. 10 μL of the reaction is then spotted onto a P30 filtermat and washed three times for 5 minutes in 75 mM phosphoric acid and once in methanol prior to drying and scintillation counting.

T1 sequence (P10721 544-976 V654A): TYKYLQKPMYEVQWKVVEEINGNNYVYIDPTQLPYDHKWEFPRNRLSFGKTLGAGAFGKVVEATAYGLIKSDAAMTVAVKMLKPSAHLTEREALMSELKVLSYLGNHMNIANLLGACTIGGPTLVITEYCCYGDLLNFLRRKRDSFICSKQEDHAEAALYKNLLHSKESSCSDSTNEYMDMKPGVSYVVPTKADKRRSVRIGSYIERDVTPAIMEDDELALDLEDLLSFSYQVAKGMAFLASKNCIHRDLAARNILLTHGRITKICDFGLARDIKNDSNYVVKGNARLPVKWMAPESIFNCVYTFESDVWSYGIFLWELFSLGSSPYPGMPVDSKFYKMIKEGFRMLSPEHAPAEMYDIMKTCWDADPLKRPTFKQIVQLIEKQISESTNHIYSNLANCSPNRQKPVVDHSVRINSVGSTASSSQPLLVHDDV

| Structure (SMILES) | IC50 (c-Kit(V654A)) [nM] | IC50 (PDGFRalpha(V561D)) [nM] |
| --- | --- | --- |
| CN1CCN(C(=O)c2ccc(-n3cc(-c4cc5ccccc5[nH]c4=O)cn3)cc2)CC1 [A74, 3-{1-[4-(4-methyl-piperazine-1-carbonyl)-phenyl]-1H-pyrazol-4-yl}-1H-quinolin-2-one] | 8 | 6 |
| O=c1[nH]c2ccccc2cc1-c1cnn(-c2ccccc2)c1 [A75, 3-(1-phenyl-1H-pyrazol-4-yl)-1H-quinolin-2-one] | 48 | 18 |
| O=C(c1cccc(-n2cc(-c3cc4ccccc4[nH]c3=O)nn2)c1)N1CCOCC1 [A76, 3-{1-[3-(morpholine-4-carbonyl)-phenyl]-1H-[1,2,3]triazol-4-yl}-1H-quinolin-2-one] | 49 | 30 |
| O=C(O)c1ccc(-n2cc(-c3cc4cccnc4[nH]c3=O)nn2)cc1 [A77, 4-[4-(2-Oxo-1,2-dihydro-[1,8]naphthyridin-3-yl)-[1,2,3]triazol-1-yl]-benzoic acid] | 470 | 110 |
| O=C(c1cccc(-n2cc(-c3cc4ccccc4[nH]c3=O)nn2)c1)N1CCNCC1 [A78, 3-{1-[3-(piperazine-1-carbonyl)-phenyl]-1H-[1,2,3]triazol-4-yl}-1H-quinolin-2-one] | 17 | 31 |
| C=C(C)c1ccc(-n2cc(-c3cc4ccccc4[nH]c3=O)nn2)cc1 [A80, 3-[1-(4-isopropenyl-phenyl)-1H-[1,2,3]triazol-4-yl]-1H-quinolin-2-one] | 120 | 44 |
| CC(C)(c1ccc(-n2cc(-c3cc4ccccc4[nH]c3=O)nn2)cc1)S(C)(=O)=O [A81, 3-{1-[4-(1-methanesulfonyl-1-methyl-ethyl)-phenyl]-1H-[1,2,3]triazol-4-yl}-1H-quinolin-2-one] | 17 | 6 |
| O=C(c1ccc(-n2cc(-c3cc4ccc(Cl)cc4[nH]c3=O)nn2)cc1)N1CCOCC1 [A82, 7-chloro-3-{1-[4-(morpholine-4-carbonyl)-phenyl]-1H-[1,2,3]triazol-4-yl}-1H-quinolin-2-one] | 14 | 3 |
| Cc1ccc2cc(-c3cn(-c4ccc(C(=O)N5CCOCC5)cc4)nn3)c(=O)[nH]c2c1 [A84, 7-methyl-3-{1-[4-(morpholine-4-carbonyl)-phenyl]-1H-[1,2,3]triazol-4-yl}-1H-quinolin-2-one] | 48 | 5 |
| O=C(c1ccc(-n2cc(-c3cc4ncccc4[nH]c3=O)nn2)cc1)N1CCOCC1 [A85, 3-{1-[4-(morpholine-4-carbonyl)-phenyl]-1H-[1,2,3]triazol-4-yl}-1H-[1,5]naphthyridin-2-one] | 1300 | 1700 |
| COCCCN1CCN(C(=O)c2ccc(-n3cc(-c4cc5c(F)cccc5[nH]c4=O)nn3)cc2)CC1 [A87, 5-fluoro-3-(1-{4-[4-(3-methoxy-propyl)-piperazine-1-carbonyl]-phenyl}-1H-[1,2,3]triazol-4-yl)-1H-quinolin-2-one] | 25 | 12 |
| COCCCN1CCN(C(=O)c2ccc(-n3cc(-c4cc5cc(F)cnc5[nH]c4=O)nn3)cc2)CC1 [A88, 6-fluoro-3-(1-{4-[4-(3-methoxy-propyl)-piperazine-1-carbonyl]-phenyl}-1H-[1,2,3]triazol-4-yl)-1H-[1,8]naphthyridin-2-one] | 90 | 6 |
| COCCCN1CCN(C(=O)c2ccc(-n3cc(-c4cc5cccnc5[nH]c4=O)nn3)cc2)CC1 [A89, 3-(1-{4-[4-(3-methoxy-propyl)-piperazine-1-carbonyl]-phenyl}-1H-[1,2,3]triazol-4-yl)-1H-[1,8]naphthyridin-2-one] | 36 | 8 |
| O=C(c1ccc(-n2cc(-c3cc4c(F)cc(F)cc4[nH]c3=O)nn2)cc1)N1CCOCC1 [A90, 5,7-difluoro-3-{1-[4-(morpholine-4-carbonyl)-phenyl]-1H-[1,2,3]triazol-4-yl}-1H-quinolin-2-one] | 20 | 29 |
| O=C(c1ccc(-n2cc(-c3cc4ccc(Br)cc4[nH]c3=O)nn2)cc1)N1CCOCC1 [A91, 7-bromo-3-{1-[4-(morpholine-4-carbonyl)-phenyl]-1H-[1,2,3]triazol-4-yl}-1H-quinolin-2-one] | 19 | 8.2 |
| COc1ccc2cc(-c3cn(-c4ccc(C(=O)N5CCOCC5)cc4)nn3)c(=O)[nH]c2c1 [A93, 7-methoxy-3-{1-[4-(morpholine-4-carbonyl)-phenyl]-1H-[1,2,3]triazol-4-yl}-1H-quinolin-2-one] | 320 | 310 |
| O=C(c1ccc(-n2cc(-c3cc4cncnc4[nH]c3=O)nn2)cc1)N1CCOCC1 [A94, 6-{1-[4-(Morpholine-4-carbonyl)-phenyl]-1H-[1,2,3]triazol-4-yl}-8H-pyrido[2,3-d]pyrimidin-7-one] | 3600 | 2300 |
| CN1CCN(C(=O)c2ccc(-n3cc(-c4cc5c(F)cc(F)cc5[nH]c4=O)nn3)cc2)CC1=O [A95, 5,7-difluoro-3-{1-[4-(4-methyl-3-oxo-piperazine-1-carbonyl)-phenyl]-1H-[1,2,3]triazol-4-yl}-1H-quinolin-2-one] | 9 | 370 |

More lines, now with the values ahead:

| IC50 (c-Kit(V654A)) [nM] | IC50 (PDGFRalpha(V561D)) [nM] | Structure (SMILES) |
| --- | --- | --- |
| 1200 | 150 | Cc1ccc2cc(-c3cn(-c4ccc(C(=O)N5CCN(C)CC5)cc4)nn3)c(=O)[nH]c2n1 [A65, 7-methyl-3-{1-[4-(4-methyl-piperazine-1-carbonyl)-phenyl]-1H-[1,2,3]triazol-4-yl}-1H-[1,8]naphthyridin-2-one] |
| 640 | 190 | CN1CCN(c2ncc(-n3cc(-c4cc5ccccc5[nH]c4=O)nn3)cn2)CC1 [A66, 3-{1-[2-(4-methyl-piperazin-1-yl)-pyrimidin-5-yl]-1H-[1,2,3]triazol-4-yl}-1H-quinolin-2-one] |
| 24 | 4 | CN1CCN(C(=O)c2ccc(-n3cc(-c4cc5cc(F)cnc5[nH]c4=O)nn3)cc2)CC1 [A67, 6-fluoro-3-{1-[4-(4-methyl-piperazine-1-carbonyl)-phenyl]-1H-[1,2,3]triazol-4-yl}-1H-[1,8]naphthyridin-2-one] |
| 28 | 7 | CN1CCN(c2ccc(-n3cc(-c4cc5ccccc5[nH]c4=O)nn3)cc2)C(=O)C1 [A68, 3-{1-[4-(4-methyl-2-oxo-piperazin-1-yl)-phenyl]-1H-[1,2,3]triazol-4-yl}-1H-quinolin-2-one] |
| 14 | 10 | CN1CCCN(c2ccc(-n3cc(-c4cc5ccccc5[nH]c4=O)nn3)cc2)CC1 [A69, 3-{1-[4-(4-methyl-[1,4]diazepan-1-yl)-phenyl]-1H-[1,2,3]triazol-4-yl}-1H-quinolin-2-one] |
| 14 | 5 | CN1CCN(c2ccc(-n3cc(-c4cc5cc(F)ccc5[nH]c4=O)nn3)cc2)CC1 [A70, 6-fluoro-3-{1-[4-(4-methyl-piperazin-1-yl)-phenyl]-1H-[1,2,3]triazol-4-yl}-1H-quinolin-2-one] |
| 8 | 4 | CN1CCN(c2ccc(-n3cc(-c4cc5cc(F)ccc5[nH]c4=O)nn3)cc2)C(=O)C1 [A71, 6-fluoro-3-{1-[4-(4-methyl-2-oxo-piperazin-1-yl)-phenyl]-1H-[1,2,3]triazol-4-yl}-1H-quinolin-2-one] |
| 11 | 4 | CN1CCN(CCOc2ccc(-n3cc(-c4cc5ccccc5[nH]c4=O)nn3)cc2)CC1 [A72, 3-(1-{4-[2-(4-methyl-piperazin-1-yl)-ethoxy]-phenyl}-1H-[1,2,3]triazol-4-yl)-1H-quinolin-2-one] |
| 33 | 31 | CN1CCN(C(=O)c2cccc(-n3cc(-c4cc5ccccc5[nH]c4=O)nn3)c2)CC1 [A79, 3-{1-[3-(4-methyl-piperazine-1-carbonyl)-phenyl]-1H-[1,2,3]triazol-4-yl}-1H-quinolin-2-one] |
| 10 | 3 | O=C(c1ccc(-n2cc(-c3cc4ccc(F)cc4[nH]c3=O)nn2)cc1)N1CCOCC1 [A83, 7-fluoro-3-{1-[4-(morpholine-4-carbonyl)-phenyl]-1H-[1,2,3]triazol-4-yl}-1H-quinolin-2-one] |
| 11 | 2 | COCCCN1CCN(C(=O)c2ccc(-n3cc(-c4cc5cc(F)ccc5[nH]c4=O)nn3)cc2)CC1 [A86, 6-fluoro-3-(1-{4-[4-(3-methoxy-propyl)-piperazine-1-carbonyl]-phenyl}-1H-[1,2,3]triazol-4-yl)-1H-quinolin-2-one] |
| 21 | 5.9 | CN1CCN(C(=O)c2ccc(-n3cc(-c4cc5cc(F)ccc5[nH]c4=O)nn3)cc2)CC1=O [A92, 6-fluoro-3-{1-[4-(4-methyl-3-oxo-piperazine-1-carbonyl)-phenyl]-1H-[1,2,3]triazol-4-yl}-1H-quinolin-2-one] |
| 60 | 54 | O=c1[nH]c2ccc(F)cc2cc1-c1cn(-c2cccc(OCCN3CCOCC3)c2)nn1 [A94a, 6-fluoro-3-{1-[3-(2-morpholin-4-yl-ethoxy)-phenyl]-1H-[1,2,3]triazol-4-yl}-1H-quinolin-2-one] |
| 5.2 | 0.33 | CN1CCN(C(=O)c2ccc(-n3cc(-c4cc5cc(Cl)ccc5[nH]c4=O)nn3)cc2)CC1=O [A96, 6-chloro-3-{1-[4-(4-methyl-3-oxo-piperazine-1-carbonyl)-phenyl]-1H-[1,2,3]triazol-4-yl}-1H-quinolin-2-one] |
